Experimental data from US4547513A, “2-Arylbenzothiazoline derivatives and their use in treating angina cordis” (Santen Pharmaceutical Co., Ltd., priority 1983, dated 1985).
Where a name gives a salt, the structure may show the parent alone.

Key:
guineapig teania coli = experiment: Calciumantagonistic activity: inhibition of Ca++-evoked contraction of isolated guineapig teania coli (Pharmacological test I); type: cell-based; conditions: Cavia porcellus, 5 min, Ca++-free-high-K Krebs solution, 32° C., 5 minutes exposure before CaCl2 (3×10^-4M), read-out: Calciumantagonistic activity IC50 (50% inhibition of Ca++-evoked contraction)
Method: The action potentials on the smooth muscles of uterus, teania coli and portal vein depend on calcium ion, and therefore these smooth muscle preparations are useful for screening of calciumantagonists. We measured the calciumantagonistic activity of the compounds by the method using guineapig teania coli preparation.
Isolated guineapig teania coli was suspended in a 20 ml organ bath with Krebs solution at 32° C. and bubbled with 5% carbon dioxide in oxygen. After equilibration, the muscle was washed with Ca^++ -free Krebs solution, and when the muscle had relaxed to basal level, it was suspended in Ca^++ -free-high-K Krebs solution.
The muscule was exposed to the test compounds for 5 minutes before addition of CaCl2, and the contraction evoked by CaCl2 (3×10^-4M) was recorded isotonically. The calciumantagonistic activity was represented by the concentration of the test compound which elicited 50% inhibition of Ca^++ -evoked contraction (IC50).

[1] = test system: platelet aggregation (rabbit platelet rich plasma); experiment: Platelet antiaggregatory activity in rabbit platelet rich plasma in vitro (Pharmacological test II); type: cell-based; conditions: Oryctolagus cuniculus, rabbit PRP, 1 minute preincubation at 37° C., induced by collagen (3μg/ml) or ADP (3μM), inducer not given, read-out: Antiaggregation activity IC50 (50% inhibition of the control response)
Method: Blood was obtained from an anesthetized rabbit using 0.1 volume of 3.8% sodium citrate as anticoagulant. Platelet rich plasma (PRP) was isolated by centrifugation at 650 rpm for 10 minutes at room temperature. After preincubation of PRP (0.25 ml) with various concentrations of the test compounds (14μl) for 1 minute at 37° C., collagen (3μg/ml: final concentration) or ADP (3μM: final concentration) was added to induce aggregation and the aggregation profiles were monitored by RIKADENKI six-channel aggregometer. The control experiment contained saline instead of the test compound.
The antiaggregatory activity was represented by the concentration of the test compounds which elicited 50% inhibition of the control response.

Row | Structure (SMILES) | IC50 (guineapig teania coli) | IC50 [1]
1 | COc1ccc(OCCCCN2CCC(C(=O)c3ccc(Cl)cc3)CC2)c(C2Sc3ccccc3N2C(C)=O)c1 (stereo not shown) [compound 4, 3-Acetyl-2-[2-[4-[4-(4-chlorobenzoyl)-1-piperidyl]butoxy]-5-methoxyphenyl]benzothiazoline maleate] | 8.7 µM | 3.2 µM
2 | COc1ccc(OCCCCN2CCC(C(O)c3ccccc3)CC2)c(C2Sc3ccccc3N2C(C)=O)c1 (stereo not drawn) [compound 5, 3-Acetyl-2-[2-[4-[4-(α-hydroxybenzyl)-1-piperidyl]butoxy]5-methoxyphenyl]benzothiazoline maleate] | 8.2 µM | 
3 | COc1ccc(OCCCCN2CCC(C(=O)c3ccc(F)cc3)CC2)c(C2Sc3ccccc3N2C(C)=O)c1 (stereo not shown) [compound 6, 3Acetyl-2-[2-[4-[4-(4-fluorobenzoyl)-1-piperidyl]butoxy]-5-methoxyphenyl]benzothiazoline maleate] | 1.6 µM | 0.29 µM
4 | COc1ccc(OCCCCN2CCC(C(=O)Cc3ccccc3)CC2)c(C2Sc3ccccc3N2C(C)=O)c1 (stereo not shown) [compound 7, 3-Acetyl-2-[2-[4-(4-benzylcarbonyl-1piperidyl)butoxy]-5-methoxyphenyl]benzothiazoline maleate] | 3.2 µM | 
5 | COc1ccc(OCCCCN2CCC(C(=O)c3ccc(C)cc3)CC2)c(C2Sc3ccccc3N2C(C)=O)c1 (stereo not shown) [compound 3, 3-Acetyl-2-(5-methoxy-2-[4-[4-(4-methylbenzoyl)-1-piperidyl]butoxy]phenyl]benzothiazoline maleate] |  | 3.2 µM
